biological target: T1, Vitamin D3 receptor (Rattus norvegicus, UniProt P13053); experiment: Displacement of [3H]1alpha,25-(OH)2D3 from full-length recombinant rat VDR by scintillation counter; conditions: not given
T1 sequence (P13053 whole entry): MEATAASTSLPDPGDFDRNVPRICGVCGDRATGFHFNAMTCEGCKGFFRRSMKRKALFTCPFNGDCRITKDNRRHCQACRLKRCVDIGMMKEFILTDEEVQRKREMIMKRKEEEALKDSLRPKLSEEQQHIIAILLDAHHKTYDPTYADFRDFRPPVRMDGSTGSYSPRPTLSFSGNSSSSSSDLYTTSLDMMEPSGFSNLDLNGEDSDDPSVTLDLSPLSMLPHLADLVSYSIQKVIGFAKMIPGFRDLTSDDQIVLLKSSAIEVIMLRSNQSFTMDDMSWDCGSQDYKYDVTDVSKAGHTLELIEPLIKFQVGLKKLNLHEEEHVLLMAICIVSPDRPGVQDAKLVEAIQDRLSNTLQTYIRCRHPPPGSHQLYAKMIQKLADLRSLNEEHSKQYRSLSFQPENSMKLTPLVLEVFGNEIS

SMILES	Ki [pM]
C=C1[C@H](O)CC(=C/C=C2\CCC[C@]3(C)[C@@H]([C@H](C)CCC(F)(F)C(C)(C)O)CC[C@@H]23)C[C@H]1O	40
C=C1[C@H](O)CC(=C/C=C2\CCC[C@]3(C)[C@@H]([C@@H](C)CCC(F)(F)C(C)(C)O)CC[C@@H]23)C[C@H]1O	30
C[C@H](CCC(F)(F)C(C)(C)O)[C@H]1CC[C@H]2/C(=C/C=C3C[C@@H](O)C[C@H](O)C3)CCC[C@]12C	20
C[C@@H](CCC(F)(F)C(C)(C)O)[C@H]1CC[C@H]2/C(=C/C=C3C[C@@H](O)C[C@H](O)C3)CCC[C@]12C	30
C=C1[C@H](O)CC(=C/C=C2\CCC[C@]3(C)[C@@H]([C@H](C)CCCC(C)(C)O)CC[C@@H]23)C[C@H]1O	30

test system: HL-60; experiment: Induction of human HL60 cell differentiation assessed as differentiation from promyelocytes to monocytes by NBT assay; type: functional; conditions: read-out: ED50 (the source's name)

SMILES	EC50 [pM]
C=C1[C@H](O)CC(=C/C=C2\CCC[C@]3(C)[C@@H]([C@H](C)CCC(F)(F)C(C)(C)O)CC[C@@H]23)C[C@H]1O	100
C=C1[C@H](O)CC(=C/C=C2\CCC[C@]3(C)[C@@H]([C@@H](C)CCC(F)(F)C(C)(C)O)CC[C@@H]23)C[C@H]1O	30
C[C@H](CCC(F)(F)C(C)(C)O)[C@H]1CC[C@H]2/C(=C/C=C3C[C@@H](O)C[C@H](O)C3)CCC[C@]12C	50
C[C@@H](CCC(F)(F)C(C)(C)O)[C@H]1CC[C@H]2/C(=C/C=C3C[C@@H](O)C[C@H](O)C3)CCC[C@]12C	60
C=C1[C@H](O)CC(=C/C=C2\CCC[C@]3(C)[C@@H]([C@H](C)CCCC(C)(C)O)CC[C@@H]23)C[C@H]1O	20

test system: HL-60; experiment: Potency index, ratio ED50 of 1alpha,25-(OH)2D3 to ED50 of compound for induction of human HL60 cell differentiation; type: functional; conditions: not given

SMILES	Ratio ED50
C=C1[C@H](O)CC(=C/C=C2\CCC[C@]3(C)[C@@H]([C@H](C)CCC(F)(F)C(C)(C)O)CC[C@@H]23)C[C@H]1O	30
C=C1[C@H](O)CC(=C/C=C2\CCC[C@]3(C)[C@@H]([C@@H](C)CCC(F)(F)C(C)(C)O)CC[C@@H]23)C[C@H]1O	100
C[C@H](CCC(F)(F)C(C)(C)O)[C@H]1CC[C@H]2/C(=C/C=C3C[C@@H](O)C[C@H](O)C3)CCC[C@]12C	60
C[C@@H](CCC(F)(F)C(C)(C)O)[C@H]1CC[C@H]2/C(=C/C=C3C[C@@H](O)C[C@H](O)C3)CCC[C@]12C	50
C=C1[C@H](O)CC(=C/C=C2\CCC[C@]3(C)[C@@H]([C@H](C)CCCC(C)(C)O)CC[C@@H]23)C[C@H]1O	150

biological target: T2, Vitamin D3 receptor (Rattus norvegicus) (UniProt P13053); experiment: Transactivation of VDR in rat osteosarcoma cells assessed as 24-hydroxylase transcriptional activity by luciferase reporter gene assay; type: cell-based; conditions: not given
T2 sequence (whole entry): T1 sequence (P13053 whole entry)

SMILES	ED50 [pM]
C=C1[C@H](O)CC(=C/C=C2\CCC[C@]3(C)[C@@H]([C@H](C)CCC(F)(F)C(C)(C)O)CC[C@@H]23)C[C@H]1O	10
C=C1[C@H](O)CC(=C/C=C2\CCC[C@]3(C)[C@@H]([C@@H](C)CCC(F)(F)C(C)(C)O)CC[C@@H]23)C[C@H]1O	20
C[C@H](CCC(F)(F)C(C)(C)O)[C@H]1CC[C@H]2/C(=C/C=C3C[C@@H](O)C[C@H](O)C3)CCC[C@]12C	40
C[C@@H](CCC(F)(F)C(C)(C)O)[C@H]1CC[C@H]2/C(=C/C=C3C[C@@H](O)C[C@H](O)C3)CCC[C@]12C	40
C=C1[C@H](O)CC(=C/C=C2\CCC[C@]3(C)[C@@H]([C@H](C)CCCC(C)(C)O)CC[C@@H]23)C[C@H]1O	7

test system: Rattus norvegicus; experiment: Induction of bone mobilization activity in weaning Sprague-Dawley rat assessed as increase in serum calcium level at 16 pmol, ip for 4 consecutive dose at an interval of 24 hrs measured 24 hrs after last dose (reference value: 4.4 to 4.5 mg/dl); type: functional; conditions: not given

SMILES	Activity [mg/dL]
C=C1[C@H](O)CC(=C/C=C2\CCC[C@]3(C)[C@@H]([C@@H](C)CCC(F)(F)C(C)(C)O)CC[C@@H]23)C[C@H]1O	5.8
C[C@@H](CCC(F)(F)C(C)(C)O)[C@H]1CC[C@H]2/C(=C/C=C3C[C@@H](O)C[C@H](O)C3)CCC[C@]12C	5.8
C=C1/C(=C\C=C2/CCC[C@]3(C)[C@@H]([C@H](C)CCCC(C)(C)O)CC[C@@H]23)C[C@@H](O)C[C@@H]1O [CALCITRIOL]	5.3

test system: Rattus norvegicus; experiment: Induction of bone mobilization activity in weaning Sprague-Dawley rat assessed as increase in serum calcium level at 87 pmol, ip for 4 consecutive dose at an interval of 24 hrs measured 24 hrs after last dose (reference value: 4.4 to 4.5 mg/dl); type: functional; conditions: not given

SMILES	Activity [mg/dL]
C=C1/C(=C\C=C2/CCC[C@]3(C)[C@@H]([C@H](C)CCCC(C)(C)O)CC[C@@H]23)C[C@@H](O)C[C@@H]1O [CALCITRIOL]	6.6

test system: Rattus norvegicus; experiment: Induction of bone mobilization activity in weaning Sprague-Dawley rat assessed as increase in serum calcium level at 780 pmol, ip for 4 consecutive dose at an interval of 24 hrs measured 24 hrs after last dose (reference value: 4.4 to 4.5 mg/dl); type: functional; conditions: not given

SMILES	Activity [mg/dL]
C=C1[C@H](O)CC(=C/C=C2\CCC[C@]3(C)[C@@H]([C@H](C)CCC(F)(F)C(C)(C)O)CC[C@@H]23)C[C@H]1O	11.2
C=C1[C@H](O)CC(=C/C=C2\CCC[C@]3(C)[C@@H]([C@@H](C)CCC(F)(F)C(C)(C)O)CC[C@@H]23)C[C@H]1O	9.8
C[C@H](CCC(F)(F)C(C)(C)O)[C@H]1CC[C@H]2/C(=C/C=C3C[C@@H](O)C[C@H](O)C3)CCC[C@]12C	5.9
C[C@@H](CCC(F)(F)C(C)(C)O)[C@H]1CC[C@H]2/C(=C/C=C3C[C@@H](O)C[C@H](O)C3)CCC[C@]12C	9.8
C=C1/C(=C\C=C2/CCC[C@]3(C)[C@@H]([C@H](C)CCCC(C)(C)O)CC[C@@H]23)C[C@@H](O)C[C@@H]1O [CALCITRIOL]	7.6

test system: Rattus norvegicus; experiment: Induction of bone mobilization activity in weaning Sprague-Dawley rat assessed as increase in serum calcium level at 260 pmol, ip for 4 consecutive dose at an interval of 24 hrs measured 24 hrs after last dose (reference value: 4.4 to 4.5 mg/dl); type: functional; conditions: not given

SMILES	Activity [mg/dL]
C=C1[C@H](O)CC(=C/C=C2\CCC[C@]3(C)[C@@H]([C@H](C)CCC(F)(F)C(C)(C)O)CC[C@@H]23)C[C@H]1O	9.4
C=C1[C@H](O)CC(=C/C=C2\CCC[C@]3(C)[C@@H]([C@@H](C)CCC(F)(F)C(C)(C)O)CC[C@@H]23)C[C@H]1O	9.5
C[C@H](CCC(F)(F)C(C)(C)O)[C@H]1CC[C@H]2/C(=C/C=C3C[C@@H](O)C[C@H](O)C3)CCC[C@]12C	4.9
C[C@@H](CCC(F)(F)C(C)(C)O)[C@H]1CC[C@H]2/C(=C/C=C3C[C@@H](O)C[C@H](O)C3)CCC[C@]12C	8.5

test system: Rattus norvegicus; experiment: Induction of bone mobilization activity in weaning Sprague-Dawley rat assessed as increase in serum calcium level at 32 pmol, ip for 4 consecutive dose at an interval of 24 hrs measured 24 hrs after last dose (reference value: 4.4 to 4.5 mg/dl); type: functional; conditions: not given

SMILES	Activity [mg/dL]
C=C1[C@H](O)CC(=C/C=C2\CCC[C@]3(C)[C@@H]([C@H](C)CCC(F)(F)C(C)(C)O)CC[C@@H]23)C[C@H]1O	6
C[C@H](CCC(F)(F)C(C)(C)O)[C@H]1CC[C@H]2/C(=C/C=C3C[C@@H](O)C[C@H](O)C3)CCC[C@]12C	4.9

test system: Rattus norvegicus; experiment: Induction of intestinal calcium transport in weaning Sprague-Dawley rat assessed as ratio of calcium level in serosal to mucosal at 16 pmol, ip for 4 consecutive dose at an interval of 24 hrs measured 24 hrs after last dose (reference value: 3.7 to 4.8); type: functional; conditions: not given

SMILES	Ratio
C=C1[C@H](O)CC(=C/C=C2\CCC[C@]3(C)[C@@H]([C@@H](C)CCC(F)(F)C(C)(C)O)CC[C@@H]23)C[C@H]1O	6.6
C[C@@H](CCC(F)(F)C(C)(C)O)[C@H]1CC[C@H]2/C(=C/C=C3C[C@@H](O)C[C@H](O)C3)CCC[C@]12C	6.6

test system: Rattus norvegicus; experiment: Induction of intestinal calcium transport in weaning Sprague-Dawley rat assessed as ratio of calcium level in serosal to mucosal at 780 pmol, ip for 4 consecutive dose at an interval of 24 hrs measured 24 hrs after last dose (reference value: 3.7 to 4.8); type: functional; conditions: not given

SMILES	Ratio
C=C1[C@H](O)CC(=C/C=C2\CCC[C@]3(C)[C@@H]([C@H](C)CCC(F)(F)C(C)(C)O)CC[C@@H]23)C[C@H]1O	16.4
C=C1[C@H](O)CC(=C/C=C2\CCC[C@]3(C)[C@@H]([C@@H](C)CCC(F)(F)C(C)(C)O)CC[C@@H]23)C[C@H]1O	8.7
C[C@H](CCC(F)(F)C(C)(C)O)[C@H]1CC[C@H]2/C(=C/C=C3C[C@@H](O)C[C@H](O)C3)CCC[C@]12C	7.7
C[C@@H](CCC(F)(F)C(C)(C)O)[C@H]1CC[C@H]2/C(=C/C=C3C[C@@H](O)C[C@H](O)C3)CCC[C@]12C	11.5

test system: Rattus norvegicus; experiment: Induction of intestinal calcium transport in weaning Sprague-Dawley rat assessed as ratio of calcium level in serosal to mucosal at 260 pmol, ip for 4 consecutive dose at an interval of 24 hrs measured 24 hrs after last dose (reference value: 3.7 to 4.8); type: functional; conditions: not given

SMILES	Ratio
C=C1[C@H](O)CC(=C/C=C2\CCC[C@]3(C)[C@@H]([C@H](C)CCC(F)(F)C(C)(C)O)CC[C@@H]23)C[C@H]1O	11.6
C=C1[C@H](O)CC(=C/C=C2\CCC[C@]3(C)[C@@H]([C@@H](C)CCC(F)(F)C(C)(C)O)CC[C@@H]23)C[C@H]1O	12.4
C[C@H](CCC(F)(F)C(C)(C)O)[C@H]1CC[C@H]2/C(=C/C=C3C[C@@H](O)C[C@H](O)C3)CCC[C@]12C	6.9
C[C@@H](CCC(F)(F)C(C)(C)O)[C@H]1CC[C@H]2/C(=C/C=C3C[C@@H](O)C[C@H](O)C3)CCC[C@]12C	8.8

test system: Rattus norvegicus; experiment: Induction of intestinal calcium transport in weaning Sprague-Dawley rat assessed as ratio of calcium level in serosal to mucosal at 32 pmol, ip for 4 consecutive dose at an interval of 24 hrs measured 24 hrs after last dose (reference value: 3.7 to 4.8); type: functional; conditions: not given

SMILES	Ratio
C=C1[C@H](O)CC(=C/C=C2\CCC[C@]3(C)[C@@H]([C@H](C)CCC(F)(F)C(C)(C)O)CC[C@@H]23)C[C@H]1O	11.7
C[C@H](CCC(F)(F)C(C)(C)O)[C@H]1CC[C@H]2/C(=C/C=C3C[C@@H](O)C[C@H](O)C3)CCC[C@]12C	9.4
